Data on 16 molecules can be found in patent publication US11919902B2, “Aryl-bipyridine amine derivatives as phosphatidylinositol phosphate kinase inhibitors” (HiberCell, Inc., priority 2017, dated 2024).

The target in one experiment is T1, GST tagged PIP4KtypeIIA (Homo sapiens, UniProt P48426).
T1 construct: made in house; host or cells: E. coli
T1 sequence (P48426 1-406): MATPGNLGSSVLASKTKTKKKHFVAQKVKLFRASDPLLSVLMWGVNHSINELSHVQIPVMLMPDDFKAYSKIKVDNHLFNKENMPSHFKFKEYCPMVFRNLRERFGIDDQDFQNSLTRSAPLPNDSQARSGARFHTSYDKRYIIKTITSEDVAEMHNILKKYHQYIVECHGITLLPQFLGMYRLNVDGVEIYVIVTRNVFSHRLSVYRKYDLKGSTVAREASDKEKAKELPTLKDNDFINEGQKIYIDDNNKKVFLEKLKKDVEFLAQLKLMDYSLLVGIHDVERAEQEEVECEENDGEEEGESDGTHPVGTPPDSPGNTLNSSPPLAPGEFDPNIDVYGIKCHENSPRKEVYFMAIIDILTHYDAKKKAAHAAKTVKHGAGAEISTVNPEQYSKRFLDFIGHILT
Briefly: ADP-glo kinase assay PIP4K 2A (PIP4KtypeIIA inhibition assay). The experiment is classed as biochemical. Particulars: Table 3; compounds listed under IC50 range headings; 10 uM ATP, 0.5 nM PIP4KIIA. The source says:
GST tagged PIP4KtypeIIA and B enzymes were overexpressed in E. Coli and purified to >80% homogeneity. Phosphatidyl inositol-5-phosphate (PI5P, Cat. #850152, Avanti Polar Lipids Inc.) was used as the lipid substrate and phosphatidyl ethanolamine (DOPE 18:1, Cat. #850725, Avanti Polar Lipids Inc.) was used as the carrier lipid for assays. Ultrapure ATP and GTP was purchased from Bellbrooke Labs. ADP Glo reagents were obtained from Promega. Transcreener FI reagent was obtained from Bellbrooke labs.
1. HEPES buffer mix: 200 mM HEPES pH 7.4, 50 mM MgCl2, 0.05% v/v triton×100
2. HNE buffer: 20 mM HEPES, pH 7.4, 100 mM NaCl, 0.5 mM EGTA
3. H:E buffer: 30 mM HEPES, pH 7.4, 1 mM EGTA
Enzyme preparation: GST-tagged PIP4KtypeIIA (5 uL, 1.43 mg/mL) was diluted (1:10) to 50 uL using HNE buffer. From the 1:10 diluted stock, a 6.4 uL aliquot was diluted further to 5 mL using HNE buffer to yield 5× enzyme stock (2.5 nM).
Lipid Preparation: In a 10 mL pyrex glass vial, lug of PI5P and lug of DOPE were suspended in 2.5 mL of HEPES buffer mix and 2.5 mL of H:E buffer. The contents were mixed and sonicated for 3 min to yield a translucent lipid stock.
Compound Preparation: Compounds were stored as 5 mM stocks in neat DMSO as room temperature in glass vials. 5 mM stocks were diluted to 2 mM and then serially diluted (3×) in neat DMSO in 96 well polypropylene plates. From the serially diluted stocks, 3 uL was delivered into 250 uL of 25% DMSO (in water) to generate 5× compound stocks. Typically, the highest compound conc. was 24 uM.
The assay volume was kept at 25 uL. To each well of the reaction plate, 10 uL of lipid stock (1:1 ratio PI5P:DOPE) was delivered. This was followed by the addition of 5 uL of compound in 25% DMSO. Then, to each well, 5 uL of 2.5 nM (5×) typeIIA enzyme was delivered. The contents were mixed well and incubated for 1 h at 27 C. After 1 h, reaction was initiated by adding 5 uL of 50 uM ATP and the contents were mixed well with a multi-channel pipetteman. The final concentration of the reagents are as follows: 50 mM HEPES, pH 7.3, 10 mM MgCl2, 20 mM NaCl, 0.01% v/v triton-X100, 5% DMSO, 10 uM ATP, 80 uM (2 ug) PI5P, 2 ug DOPE, and 0.5 nM PIP4KIIA. Typically, the highest conc. of compounds was 4.8 uM and the lowest conc. was 0.
After 1 hr, the reaction was quenched by adding 25 uL of ADP Glo reagent. The contents were incubated for 1 hr. Afterwards, 50 uL of kinase detection reagent was delivered. The contents were incubated for another hour. The luminescence was read using Molecular Devices Paradigm plate reader. […] The blanks were averaged and subtracted from all other wells. Using a calibration curve, RLU was converted to uM ADP (product). IC50 was calculated by plotting the residual activity (expressed as % No inhibitor control) vs. log [Inh. conc.]
In general terms: ADP-Glo first removes unused ATP, then detects ADP through luciferase.

A further experiment deals with T2, GST tagged PIP4KtypeIIB (Homo sapiens, UniProt P78356).
T2 construct: made in house; host or cells: E. coli
T2 sequence (P78356 1-416): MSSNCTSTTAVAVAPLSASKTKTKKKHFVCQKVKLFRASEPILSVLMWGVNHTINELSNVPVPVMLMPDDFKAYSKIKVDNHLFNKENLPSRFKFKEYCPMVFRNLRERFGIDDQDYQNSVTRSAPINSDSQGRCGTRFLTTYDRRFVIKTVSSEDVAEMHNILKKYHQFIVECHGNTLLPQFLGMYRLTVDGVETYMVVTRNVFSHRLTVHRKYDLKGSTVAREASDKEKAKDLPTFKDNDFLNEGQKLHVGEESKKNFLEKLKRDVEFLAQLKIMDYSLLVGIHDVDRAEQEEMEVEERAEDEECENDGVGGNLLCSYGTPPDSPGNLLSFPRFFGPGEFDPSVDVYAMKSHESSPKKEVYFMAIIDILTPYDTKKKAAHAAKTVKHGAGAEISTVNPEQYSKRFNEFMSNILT
Briefly: Trans-FI P kinase assay PIP4K2B (PIP4KtypeIIB inhibition assay). The experiment is classed as biochemical. Particulars: Table 4; compounds listed under IC50 range headings; 100 uM GTP, 5 nM PIP4KIIB; read-out: Trans-FI P kinase assays: PIP4K2B IC50. Summed up: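 Transcreener FI fluorescence, converted to GDP by calibration, tracked product from 5 nM E. coli-expressed GST-PIP4KIIB acting on 80 uM PI5P (DOPE carrier) with 100 uM GTP. Compound (top 4.8 uM final, 5% DMSO) was preincubated 1 h at 27 C before the 2 h reaction; IC50 fitted from residual activity.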

Broadly, the IC50 is the concentration that gives 50% inhibition. Consider `O=C(NCCc1cncs1)c1cc2c(-c3cncc(-c4ccc(N5CCCC5=O)cc4)c3)ccnc2[nH]1` [Example 298, 4-(5-(4-(2-oxopyrrolidin-1-yl)phenyl)pyridin-3-yl)-N-(2-(thiazol-5-yl)ethyl)-1H-pyrrolo[2,3-b]pyridine-2-carboxamide], for which the concentration for half-maximal inhibition (IC50) was in the range of 100 to 1000 nM on GST tagged PIP4KtypeIIA and 10 to 100 nM on GST tagged PIP4KtypeIIB.

For the molecule `CC(C)c1cc(=O)n2ncc(-c3cncc(-c4ccc(N5CCCC5=O)cc4)c3)c2[nH]1` [Example 281, 5-isopropyl-3-(5-(4-(2-oxopyrrolidin-1-yl)phenyl)pyridin-3-yl)pyrazolo[1,5-a]pyrimidin-7(4H)-one], the IC50 at GST tagged PIP4KtypeIIA and on GST tagged PIP4KtypeIIB was 1000 to 2500 nM each time.

For `O=C(Nc1ccc(-c2cncc(-c3ccnc4[nH]ncc34)c2)cc1)C(=O)N1C2CCC1CC2` [Example 204, N-(4-(5-(1H-pyrazolo[3,4-b]pyridin-4-yl)pyridin-3-yl)phenyl)-2-(7-azabicyclo[2.2.1]heptan-7-yl)-2-oxoacetamide], the half-inhibitory concentration (IC50) on GST tagged PIP4KtypeIIA is 100 to 1000 nM; on GST tagged PIP4KtypeIIB it was greater than 5000 nM.

On to `O=C(NCCc1ccccn1)c1cc2c(-c3cncc(-c4ccc(N5CCCC5=O)cc4)c3)ccnc2[nH]1` [Example 246, 4-(5-(4-(2-oxopyrrolidin-1-yl)phenyl)pyridin-3-yl)-N-(2-(pyridin-2-yl)ethyl)-1H-pyrrolo[2,3-b]pyridine-2-carboxamide], for which the 50% inhibitory concentration (IC50) against GST tagged PIP4KtypeIIA is 100 to 1000 nM; at GST tagged PIP4KtypeIIB it was 10 to 100 nM.

As for `CC(C)c1c(-c2cncc(-c3ccc(N4CCCC4=O)cc3)c2)c2cc(C(=O)N(C)C)cnc2n1C` [Example 266, 2-isopropyl-N,N,1-trimethyl-3-(5-(4-(2-oxopyrrolidin-1-yl)phenyl)pyridin-3-yl)-1H-pyrrolo[2,3-b]pyridine-5-carboxamide], the half-maximal inhibitory concentration (IC50) was 2500 to 5000 nM on GST tagged PIP4KtypeIIA and 1000 to 2500 nM at GST tagged PIP4KtypeIIB.

As for `CN(C)C(=O)c1ccc(-c2cc(-c3ccnc4[nH]c(C(=O)N5CCS(=O)(=O)CC5)cc34)cnc2N)nc1` [Example 142, 2′-amino-5′-(2-(1,1-dioxidothiomorpholine-4-carbonyl)-1H-pyrrolo[2,3-b]pyridin-4-yl)-N,N-dimethyl-[2,3′-bipyridine]-5-carboxamide], the IC50 against GST tagged PIP4KtypeIIA and on GST tagged PIP4KtypeIIB was 100 to 1000 nM each time.

Take `CN(C)C(=O)c1ccc(-c2cc(-c3ccnc4[nH]c(C(=O)N5CC6(COC6)C5)cc34)cnc2N)nc1` [Example 147, 5′-(2-(2-oxa-6-azaspiro[3.3]heptane-6-carbonyl)-1H-pyrrolo[2,3-b]pyridin-4-yl)-2′-amino-N,N-dimethyl-[2,3′-bipyridine]-5-carboxamide]: the concentration for half-maximal inhibition (IC50) on GST tagged PIP4KtypeIIA was 100 to 1000 nM; at GST tagged PIP4KtypeIIB, 10 to 100 nM.

On to `C[C@@H](O)c1cnc2c(c1)c(-c1cncc(-c3ccc(N4CCCC4=O)cc3)c1)cn2C` [Example 293, (R)-1-(4-(5-(5-(1-hydroxyethyl)-1-methyl-1H-pyrrolo[2,3-b]pyridin-3-yl)pyridin-3-yl)phenyl)pyrrolidin-2-one], for which the IC50 against GST tagged PIP4KtypeIIA and on GST tagged PIP4KtypeIIB was 100 to 1000 nM throughout.

Consider `O=C(NCc1ccccc1)c1cc2c(-c3cncc(-c4ccc(N5CCCC5=O)cc4)c3)ccnc2[nH]1` [Example 232, N-benzyl-4-(5-(4-(2-oxopyrrolidin-1-yl)phenyl)pyridin-3-yl)-1H-pyrrolo[2,3-b]pyridine-2-carboxamide], for which the IC50 against GST tagged PIP4KtypeIIA is 100 to 1000 nM; at GST tagged PIP4KtypeIIB it was 10 to 100 nM.

On to `CN1CCn2c(cc3c(-c4cncc(-c5ccc(N6CC(C)(C)CC6=O)cc5)c4)ccnc32)C1=O` [Example 200, 4-(5-(4-(4,4-dimethyl-2-oxopyrrolidin-1-yl)phenyl)pyridin-3-yl)-7-methyl-8,9-dihydropyrido[3′,2′:4,5]pyrrolo[1,2-a]pyrazin-6(7H)-one], for which the IC50 against GST tagged PIP4KtypeIIA lay within 100 to 1000 nM; at GST tagged PIP4KtypeIIB it was 10 to 100 nM.

In the case of `CC(O)c1cnc2[nH]c(C3CC3)c(-c3cncc(-c4ccc(N5CCCC5=O)cc4)c3)c2c1` (centres unmarked) [Example 291, 1-(4-(5-(2-cyclopropyl-5-(1-hydroxyethyl)-1H-pyrrolo[2,3-b]pyridin-3-yl)pyridin-3-yl)phenyl)pyrrolidin-2-one], the concentration for half-maximal inhibition (IC50) on GST tagged PIP4KtypeIIA and at GST tagged PIP4KtypeIIB was 10 to 100 nM in each case.

With `CN(C)C(=O)c1ccc(-c2cc(-c3ccnc4[nH]c(C(=O)NCC(N)=O)cc34)cnc2N)nc1` [Example 144, N-(2-amino-2-oxoethyl)-4-(2′-amino-5-(dimethylcarbamoyl)-[2,3′-bipyridin]-5′-yl)-1H-pyrrolo[2,3-b]pyridine-2-carboxamide], the values for the IC50 against GST tagged PIP4KtypeIIA and on GST tagged PIP4KtypeIIB were 100 to 1000 nM and 10 to 100 nM, respectively.

As to `O=C(NCCc1cnccn1)c1cc2c(-c3cncc(-c4ccc(N5CCCC5=O)cc4)c3)ccnc2[nH]1` [Example 255, 4-(5-(4-(2-oxopyrrolidin-1-yl)phenyl)pyridin-3-yl)-N-(2-(pyrazin-2-yl)ethyl)-1H-pyrrolo[2,3-b]pyridine-2-carboxamide], the 50% inhibitory concentration (IC50) against GST tagged PIP4KtypeIIA fell in the range of 100 to 1000 nM; at GST tagged PIP4KtypeIIB, 10 to 100 nM.

Turning to `O=C(N[C@H]1C[C@H](c2ccccc2)C1)c1cc2c(-c3cncc(-c4ccc(N5CCCC5=O)cc4)c3)ccnc2[nH]1` [Example 297, 4-(5-(4-(2-oxopyrrolidin-1-yl)phenyl)pyridin-3-yl)-N-((1r,3r)-3-phenylcyclobutyl)-1H-pyrrolo[2,3-b]pyridine-2-carboxamide], the half-maximal inhibitory concentration (IC50) at GST tagged PIP4KtypeIIA is 1000 to 2500 nM; at GST tagged PIP4KtypeIIB it was greater than 5000 nM.

For the molecule `CCc1cccc2c1CC(=O)N2c1ccc(-c2cncc(-c3ccnc4c3cc3n4CCN(C)C3=O)c2)cc1` [Example 209, 4-(5-(4-(4-ethyl-2-oxoindolin-1-yl)phenyl)pyridin-3-yl)-7-methyl-8,9-dihydropyrido[3′,2′:4,5]pyrrolo[1,2-a]pyrazin-6(7H)-one], the half-inhibitory concentration (IC50) against GST tagged PIP4KtypeIIA was greater than 5000 nM; on GST tagged PIP4KtypeIIB it was 1000 to 2500 nM.

In the case of `CC(O)c1cnc2c(c1)c(-c1cncc(-c3ccc(N4CCCC4=O)cc3)c1)c1n2CCC1` (centres unmarked) [Example 351, 1-(4-(5-(3-(1-hydroxyethyl)-7,8-dihydro-6H-pyrido[3,2-b]pyrrolizin-5-yl)pyridin-3-yl)phenyl)pyrrolidin-2-one], the IC50 against GST tagged PIP4KtypeIIA and at GST tagged PIP4KtypeIIB was 10 to 100 nM each time.
